Tests used:
Assay in all cases: relative viability (nuclei count vs DMSO), 5 days (fraction); higher = more cells survive
[1] = compound: C=CC(=O)Nc1cc(-n2c(=O)ccc3cnc4ccc(-c5ccc(NS(C)(=O)=O)cc5)cc4c32)ccc1C [BMX-IN-1] + O=C(c1cc(Cc2n[nH]c(=O)c3ccccc23)ccc1F)N1CCN(C(=O)C2CC2)CC1 [Olaparib] (partner 8 µM)
Procedure, shortened: (§1)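 Lung cancer cell lines in 1536-well plates got either a single drug or a fixed anchor-drug dose together with five library-drug doses (not always all listed) in √10 steps, by pin tool, on the day after seeding. Nuclei were counted after 5 days, and relative viability is the treated-to-vehicle ratio of nuclei counts. Values are medians of duplicate plates.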

[2] = compound: C=CCc1cccc(/C=N/NC(=O)CN2CCN(Cc3ccccc3)CC2)c1O [PAC-1] + O=C(c1cc(Cc2n[nH]c(=O)c3ccccc23)ccc1F)N1CCN(C(=O)C2CC2)CC1 [Olaparib] (partner 8 µM)
Procedure, shortened: as §1

[3] = compound: C=CCc1cccc(/C=N/NC(=O)CN2CCN(Cc3ccccc3)CC2)c1O [PAC-1] + CS(=O)(=O)N1CCN(Cc2cc3nc(-c4cccc5[nH]ncc45)nc(N4CCOCC4)c3s2)CC1 [Pictilisib] (partner 1 µM)
Procedure, shortened: as §1

[4] = compound: C=CC(=O)N1CCC[C@@H](n2nc(-c3ccc(Oc4ccccc4)cc3)c3c(N)ncnc32)C1 [Ibrutinib] + CS(=O)(=O)CCNCc1ccc(-c2ccc3ncnc(Nc4ccc(OCc5cccc(F)c5)c(Cl)c4)c3c2)o1 [Lapatinib] (partner 2 µM)
Procedure, shortened: as §1

| Cell Line | relative viability ([1]; first compound 0.02 µM) | relative viability ([1]; first compound 0.2 µM) | relative viability ([1]; first compound 0.6325 µM) | relative viability ([1]; first compound 2 µM) | relative viability ([2]; first compound 0.02 µM) | relative viability ([2]; first compound 0.06325 µM) | relative viability ([2]; first compound 0.2 µM) | relative viability ([2]; first compound 2 µM) | relative viability ([3]; first compound 0.02 µM) | relative viability ([3]; first compound 0.06325 µM) | relative viability ([3]; first compound 0.2 µM) | relative viability ([3]; first compound 2 µM) | relative viability ([4]; first compound 0.01581 µM) | relative viability ([4]; first compound 0.05 µM) | relative viability ([4]; first compound 0.1581 µM) | relative viability ([4]; first compound 0.5 µM) | relative viability ([4]; first compound 0.005 µM) |
| --- | --- | --- | --- | --- | --- | --- | --- | --- | --- | --- | --- | --- | --- | --- | --- | --- | --- |
| NCI-H1793 | 1.1 | 1.01 | 1.05 | 0.92 | 0.682 | 0.855 | 0.7 | 0.628 | 0.344 | 0.345 | 0.254 | 0.332 | 0.796 | 0.819 | 0.58 | 0.577 | – |
| NCI-H1915 | 0.267 | 0.27 | 0.263 | 0.246 | 0.234 | 0.262 | 0.22 | 0.274 | 0.875 | 1.02 | 0.929 | 0.951 | 0.987 | 1.01 | 1.06 | 1.06 | – |
| NCI-H1944 | 0.439 | 0.414 | 0.396 | 0.435 | 0.389 | 0.434 | 0.425 | 0.402 | 0.3 | 0.345 | 0.323 | 0.33 | 0.818 | 0.771 | 0.7 | 0.844 | 0.818 |
| NCI-H1975 | 0.837 | 1.02 | 0.853 | 0.841 | 0.779 | 0.809 | 0.811 | 0.703 | 0.281 | 0.304 | 0.308 | 0.303 | 0.772 | 0.837 | 0.79 | 0.517 | 0.899 |
| NCI-H1993 | 1.21 | 1.15 | 0.913 | 1.06 | 1.12 | 1.16 | 0.684 | 0.961 | 0.696 | 0.881 | 0.844 | 0.823 | 0.576 | 0.856 | – | 0.764 | 0.766 |
| NCI-H2009 | 0.838 | 0.646 | 0.654 | 0.66 | 0.681 | 0.655 | 0.677 | 0.652 | 0.832 | 0.866 | 0.792 | 0.789 | 0.945 | 0.94 | 0.65 | 0.988 | 0.952 |
| NCI-H2023 | 0.516 | 0.655 | 0.47 | 0.489 | 0.468 | 0.425 | 0.449 | 0.257 | 0.224 | 0.262 | 0.213 | 0.258 | 0.711 | 0.772 | 0.818 | 0.868 | 0.622 |
| NCI-H2085 | 0.807 | 0.704 | 0.782 | 0.746 | 0.728 | 0.74 | 0.74 | 0.831 | 0.446 | 0.518 | 0.422 | 0.485 | 0.727 | 0.75 | 0.752 | 0.631 | 0.651 |
| NCI-H2087 | 0.627 | 0.62 | 0.556 | 0.643 | 0.53 | 0.504 | 0.579 | 0.451 | 0.852 | 0.901 | 0.782 | 0.683 | 1.17 | 0.986 | 1.03 | 1.11 | 1.09 |
| NCI-H2126 | 0.979 | 0.897 | 1.03 | 0.875 | 0.896 | 0.871 | 0.941 | 0.886 | 0.43 | 0.478 | 0.495 | 0.49 | 0.726 | 0.756 | 0.741 | 0.706 | – |
| NCI-H2170 | 0.587 | 0.677 | 0.717 | 0.624 | 0.557 | 0.632 | 0.562 | 0.542 | 0.28 | 0.315 | 0.362 | 0.27 | 0.258 | 0.245 | 0.25 | 0.26 | 0.247 |

Reference: the supplement of paper PMC10307832
